Measured values as given in patent US20080206866A1, “Reagency and Method for Preventing Time-Dependent Expression in Biological Cells” (ANDNAGEN AG, priority 2005, published 2008).

What was measured:
tumour cell line Calu-3 = test: Detection of 2 inoculated Calu-3 tumour cells in treated blood samples; format: cell-based, human; details: 2 Calu-3 cells
From the text: (§1) In all the examples which are represented subsequently, an analysis was implemented as described in EP 02 732 726. Antibodies were thereby coupled to magnetic particles for cell selection. The antibodies represented subsequently in Table 1 were thereby used as antibodies.
(§2) The magnetic particles were thereby used in a concentration of 4×10^8 beads/ml (CELLection™ Pan Mouse IgG Kit, company Dynal). The ratios between the antibody concentration and the antibodies coupled thereto are reproduced in Table 2.
The magnetic particles prepared in this way were mixed in equal parts and added to the blood (EDTA) in 100 μl PBS per 5 ml sample. […]
The thus produced amplificates of the cDNA were separated electrophoretically by means of a bioanalyser 2100 (company Agilent). […] Peaks with a level of <4.0 are evaluated as negative. Peaks, the level of which is 4.0 to 6.7, can be evaluated neither as positive nor as negative. In this way FIGS. 1 to 6 were produced and evaluated. […]
Tracks 1, 4 and 7 thereby show a ladder with size markers, tracks 2, 5 and 8 show the amplified DNA fragments of the tumour-associated transcripts to be detected in a healthy donor and of an internal control of β-actin. […]

[1] = system: tumour-associated transcripts GA733-2, MUC-1 and Her-2; test: Detection of time-dependent induced transcription in treated blood samples of healthy donors (immunomagnetic cell selection, RT-PCR, Bioanalyser); format: cell-based, human; details: healthy donor
From the text: as §1, §2
The magnetic particles prepared in this way were mixed in equal parts and added to the blood (EDTA) in 100 μl PBS per 5 ml sample.
After 30 min incubation in an overhead agitator, the magnetic particles which were present possibly as cell-antibody magnetic particle complexes, were washed three times with PBS by means of a magnetic particle concentrator (MPC®-S, company Dynal) and the adhering cells were treated subsequently corresponding to the mRNA isolation protocol described subsequently. […]
The thus produced amplificates of the cDNA were separated electrophoretically by means of a bioanalyser 2100 (company Agilent). […] Peaks with a level of <4.0 are evaluated as negative. Peaks, the level of which is 4.0 to 6.7, can be evaluated neither as positive nor as negative. In this way FIGS. 1 to 6 were produced and evaluated.

[2] = 0.01% (w/v) DU, 0 h, 24 h and 48 h at 4° C.
[3] = 0.025%, 0.05% and 0.075% (w/v) bronopol, 24 h at 4° C.

SMILES | detection of tumour-associated transcripts of inoculated cells (tumour cell line Calu-3; [2]) | analysis result for illegitimate time-dependent induced expression, samples without inoculated cells [1, 2] | detection of tumour-associated transcripts of inoculated cells (tumour cell line Calu-3; [3]) | analysis result for illegitimate time-dependent induced expression [1, 3]
O=C(NCO)N(CO)C1(CO)C(=O)NC(=O)N1CO (stereo not shown) [DU, diazolidinyl urea] | detected unequivocally | negative |  | 
O=[N+]([O-])C(Br)(CO)CO [bronopol, 2-bromo-2-nitropropane-1,3-diol] |  |  | detected unequivocally | negative
